Experimental data: publication PMC5578959, “Selective LRRK2 kinase inhibition reduces phosphorylation of endogenous Rab10 and Rab12 in human peripheral mononuclear blood cells” (Scientific Reports, 2017)

Assays:
Assay in all cases: KiNativ profiling in human PBMCs
Type in all cases: binding
FGR = tested on: T1, FGR; conditions: Activation Loop
T1 construct: purchased ActivX Technologies (KiNativ)
Outline: (§1)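 Selectivity across the kinome was examined with KiNativ after exposing live peripheral blood mononuclear cells to compound at 1 µM and at 0.1 µM.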

MSK2 domain1 = tested on: T2, MSK2 domain1; conditions: Lys2
T2 construct: MSK2 domain1; purchased ActivX Technologies (KiNativ)
Outline: as §1

RSK3 domain1 = tested on: T3, RSK3 domain1; conditions: Lys2
T3 construct: RSK3 domain1; purchased ActivX Technologies (KiNativ)
Outline: as §1

JAK1 domain1 = tested on: T4, JAK1 domain1; conditions: Protein Kinase Domain
T4 construct: JAK1 domain1; purchased ActivX Technologies (KiNativ)
Outline: as §1

CDK2 = tested on: T5, CDK2
T5 construct: purchased ActivX Technologies (KiNativ)
Outline: as §1

LRRK2 = tested on: T6, LRRK2
T6 construct: purchased ActivX Technologies (KiNativ)
Outline: as §1

MAP2K1,MAP2K2 = conditions: Lys2
Outline: as §1

Erk5 = tested on: T7, Erk5; conditions: Lys2
T7 construct: purchased ActivX Technologies (KiNativ)
Outline: as §1

HCK = tested on: T8, HCK
T8 construct: purchased ActivX Technologies (KiNativ)
Outline: as §1

MAST3 = tested on: T9, MAST3; conditions: Lys2
T9 construct: purchased ActivX Technologies (KiNativ)
Outline: as §1

PI4KB = tested on: T10, PI4KB; conditions: ATP
T10 construct: purchased ActivX Technologies (KiNativ)
Outline: as §1

Wnk1,Wnk2,Wnk4 = conditions: Activation Loop
Outline: as §1

MAP2K5 = tested on: T11, MAP2K5
T11 construct: purchased ActivX Technologies (KiNativ)
Outline: as §1

LKB1 = tested on: T12, LKB1; conditions: Lys2
T12 construct: purchased ActivX Technologies (KiNativ)
Outline: as §1

RIPK3 = tested on: T13, RIPK3; conditions: Lys2
T13 construct: purchased ActivX Technologies (KiNativ)
Outline: as §1

FER = tested on: T14, FER
T14 construct: purchased ActivX Technologies (KiNativ)
Outline: as §1

ZAK = tested on: T15, ZAK; conditions: Lys1
T15 construct: purchased ActivX Technologies (KiNativ)
Outline: as §1

NEK9 = tested on: T16, NEK9
T16 construct: purchased ActivX Technologies (KiNativ)
Outline: as §1

PKN1 = tested on: T17, PKN1
T17 construct: purchased ActivX Technologies (KiNativ)
Outline: as §1

CaMK1a = tested on: T18, CaMK1a
T18 construct: purchased ActivX Technologies (KiNativ)
Outline: as §1

p38a = tested on: T19, p38a
T19 construct: purchased ActivX Technologies (KiNativ)
Outline: as §1

TAO1,TAO3 = conditions: Lys2
Outline: as §1

GSK3B = tested on: T20, GSK3B; conditions: Lys2
T20 construct: purchased ActivX Technologies (KiNativ)
Outline: as §1

NDR2 = tested on: T21, NDR2
T21 construct: purchased ActivX Technologies (KiNativ)
Outline: as §1

p38d,p38g = conditions: Lys2
Outline: as §1

MARK1,MARK2 = conditions: Lys1
Outline: as §1

ULK1 = tested on: T22, ULK1; conditions: Lys2
T22 construct: purchased ActivX Technologies (KiNativ)
Outline: as §1

BRAF = tested on: T23, BRAF; conditions: Lys2
T23 construct: purchased ActivX Technologies (KiNativ)
Outline: as §1

MAP3K5 = tested on: T24, MAP3K5; conditions: Lys2
T24 construct: purchased ActivX Technologies (KiNativ)
Outline: as §1

TLK2 = tested on: T25, TLK2
T25 construct: purchased ActivX Technologies (KiNativ)
Outline: as §1

AKT2,AKT3 = conditions: ATP Loop
Outline: as §1

NEK4 = tested on: T26, NEK4; conditions: Lys2
T26 construct: purchased ActivX Technologies (KiNativ)
Outline: as §1

MLKL = tested on: T27, MLKL; conditions: Lys1
T27 construct: purchased ActivX Technologies (KiNativ)
Outline: as §1

MARK2,MARK3 = conditions: Lys2
Outline: as §1

CaMK2d = tested on: T28, CaMK2d; conditions: Lys1
T28 construct: purchased ActivX Technologies (KiNativ)
Outline: as §1

PIP5K3 = tested on: T29, PIP5K3; conditions: ATP
T29 construct: purchased ActivX Technologies (KiNativ)
Outline: as §1

MARK3 = tested on: T30, MARK3; conditions: Lys1
T30 construct: purchased ActivX Technologies (KiNativ)
Outline: as §1

With `Cn1cc(-c2c[nH]c3ncnc(N4CCOCC4)c23)cc1C#N` [PFE-360] the “% Inhibition” value (FGR; 0.1µM) was -2.5%, the “% Inhibition” value (FGR; 1µM) was -6.6% and the “% Inhibition” value (MSK2 domain1; 0.1µM) was 2.2%. For the same compound, the “% Inhibition” value (MSK2 domain1; 1µM) was 1.9%, the “% Inhibition” value (RSK3 domain1; 0.1µM) was 5.5% and the “% Inhibition” value (RSK3 domain1; 1µM) was 8.1%. The “% Inhibition” value (JAK1 domain1; 0.1µM) was 16.2%, the “% Inhibition” value (JAK1 domain1; 1µM) was 8.2% and the “% Inhibition” value (CDK2; 0.1µM, Lys1) was -5.8%. The “% Inhibition” value (CDK2; 0.1µM, Lys2) was 4.2%, the “% Inhibition” value (CDK2; 1µM, Lys1) was -5.5% and the “% Inhibition” value (CDK2; 1µM, Lys2) was -2.9%. For the same compound, the “% Inhibition” value (LRRK2; 0.1µM, Lys1) was over 90%, the “% Inhibition” value (LRRK2; 0.1µM, Lys2) was 93.8% and the Inhibition (LRRK2; 0.1µM, Lys2) was “full inhibition”. The “% Inhibition” value (LRRK2; 1µM, Lys1) was over 90%, the “% Inhibition” value (LRRK2; 1µM, Lys2) was 96.7% and the “% Inhibition” value (MAP2K1,MAP2K2; 0.1µM) was 13.4%. For the same compound, the “% Inhibition” value (MAP2K1,MAP2K2; 1µM) was 12.9%, the “% Inhibition” value (Erk5; 0.1µM) was 5% and the “% Inhibition” value (Erk5; 1µM) was 7.2%. The “% Inhibition” value (HCK; 0.1µM, Activation Loop) was -0.8%, the “% Inhibition” value (HCK; 0.1µM, Lys1) was -20.8% and the “% Inhibition” value (HCK; 1µM, Activation Loop) was -4.1%. For the same compound, the “% Inhibition” value (HCK; 1µM, Lys1) was 12.3%, the “% Inhibition” value (MAST3; 0.1µM) was 0.2% and the “% Inhibition” value (MAST3; 1µM) was -2.7%. For the same compound, the “% Inhibition” value (PI4KB; 0.1µM, peptide LLSVIVKCGDDLRQELLAFQVLK) was -14.7%, the “% Inhibition” value (PI4KB; 0.1µM, peptide VPHTQAVVLNSKDK) was 3.6% and the “% Inhibition” value (PI4KB; 1µM, peptide LLSVIVKCGDDLRQELLAFQVLK) was -10.6%. The “% Inhibition” value (PI4KB; 1µM, peptide VPHTQAVVLNSKDK) was -12.4%, the “% Inhibition” value (Wnk1,Wnk2,Wnk4; 0.1µM) was 4.7% and the “% Inhibition” value (Wnk1,Wnk2,Wnk4; 1µM) was 2.2%. The “% Inhibition” value (MAP2K5; 0.1µM, Lys1) was 4.7%, the “% Inhibition” value (MAP2K5; 0.1µM, Lys2) was -4.6% and the “% Inhibition” value (MAP2K5; 1µM, Lys1) was -10.3%. The “% Inhibition” value (MAP2K5; 1µM, Lys2) was 31.9%, the “% Inhibition” value (LKB1; 0.1µM) was 6.5% and the “% Inhibition” value (LKB1; 1µM) was 0.4%. The “% Inhibition” value (RIPK3; 0.1µM) was 16.1%, the “% Inhibition” value (RIPK3; 1µM) was 27.3% and the “% Inhibition” value (FER; 0.1µM, Activation Loop) was 10%. For the same compound, the “% Inhibition” value (FER; 0.1µM, Lys1) was -2%, the “% Inhibition” value (FER; 1µM, Activation Loop) was 4.9% and the “% Inhibition” value (FER; 1µM, Lys1) was -3.4%. For the same compound, the “% Inhibition” value (ZAK; 0.1µM) was -12.2%, the “% Inhibition” value (ZAK; 1µM) was -10.2% and the “% Inhibition” value (NEK9; 0.1µM, Lys1) was -10.6%. The “% Inhibition” value (NEK9; 0.1µM, Lys2) was 8.9%, the “% Inhibition” value (NEK9; 1µM, Lys1) was -19.6% and the “% Inhibition” value (NEK9; 1µM, Lys2) was 5.7%. For the same compound, the “% Inhibition” value (PKN1; 0.1µM, Lys1) was -4.7%, the “% Inhibition” value (PKN1; 0.1µM, Lys2) was -3.5% and the “% Inhibition” value (PKN1; 1µM, Lys1) was -10.8%. The “% Inhibition” value (PKN1; 1µM, Lys2) was -25.9%, the “% Inhibition” value (CaMK1a; 0.1µM, Lys1) was -2.5% and the “% Inhibition” value (CaMK1a; 0.1µM, Lys2) was -12.3%. The “% Inhibition” value (CaMK1a; 1µM, Lys1) was 3.5%, the “% Inhibition” value (CaMK1a; 1µM, Lys2) was -25% and the “% Inhibition” value (p38a; 0.1µM, Lys2) was 7.1%. For the same compound, the “% Inhibition” value (p38a; 0.1µM, Protein Kinase Domain) was 7.5%, the “% Inhibition” value (p38a; 1µM, Lys2) was -2.9% and the “% Inhibition” value (p38a; 1µM, Protein Kinase Domain) was 1%. For the same compound, the “% Inhibition” value (TAO1,TAO3; 0.1µM) was -0.2%, the “% Inhibition” value (TAO1,TAO3; 1µM) was -14.3% and the “% Inhibition” value (GSK3B; 0.1µM) was 11.2%. For the same compound, the “% Inhibition” value (GSK3B; 1µM) was 14.9%, the “% Inhibition” value (NDR2; 0.1µM, Lys1) was -18.6% and the “% Inhibition” value (NDR2; 0.1µM, Lys2) was 2.7%. The “% Inhibition” value (NDR2; 1µM, Lys1) was -5.5%, the “% Inhibition” value (NDR2; 1µM, Lys2) was -8.1% and the “% Inhibition” value (p38d,p38g; 0.1µM) was 0.8%. The “% Inhibition” value (p38d,p38g; 1µM) was -7.7%, the “% Inhibition” value (MARK1,MARK2; 0.1µM) was 6.2% and the “% Inhibition” value (MARK1,MARK2; 1µM) was 3.2%. The “% Inhibition” value (ULK1; 0.1µM) was 9.8%, the “% Inhibition” value (ULK1; 1µM) was 4.2% and the “% Inhibition” value (BRAF; 0.1µM) was -13.9%. The “% Inhibition” value (BRAF; 1µM) was -14.3%, the “% Inhibition” value (MAP3K5; 0.1µM) was 44.3% and the “% Inhibition” value (MAP3K5; 1µM) was 60.3%. For the same compound, the “% Inhibition” value (TLK2; 0.1µM, Lys1) was -8.8%, the “% Inhibition” value (TLK2; 0.1µM, Lys2) was -5.5% and the “% Inhibition” value (TLK2; 1µM, Lys1) was -9.2%. For the same compound, the “% Inhibition” value (TLK2; 1µM, Lys2) was -10.6%, the “% Inhibition” value (AKT2,AKT3; 0.1µM) was -2.2% and the “% Inhibition” value (AKT2,AKT3; 1µM) was -5.2%. For the same compound, the “% Inhibition” value (NEK4; 0.1µM) was 9.8%, the “% Inhibition” value (NEK4; 1µM) was -8.3% and the “% Inhibition” value (MLKL; 0.1µM) was 2.3%. The “% Inhibition” value (MLKL; 1µM) was 5.2%, the “% Inhibition” value (MARK2,MARK3; 0.1µM) was -16.2% and the “% Inhibition” value (MARK2,MARK3; 1µM) was 16.7%. The “% Inhibition” value (CaMK2d; 0.1µM) was 0.1%, the “% Inhibition” value (CaMK2d; 1µM) was -3% and the “% Inhibition” value (PIP5K3; 0.1µM) was -6.1%. The “% Inhibition” value (PIP5K3; 1µM) was -15.9%, the “% Inhibition” value (MARK3; 0.1µM) was 4.8% and the “% Inhibition” value (MARK3; 1µM) was 4.7%.
